{"source": "patent US20250172542A1", "about": "“METHOD FOR INDUCING ARTIFICIAL AGEING IN A STEM CELL AND USES OF SAID CELL” (Clock Bio Limited, priority 2022, published 2025)", "key": {"[1]": {"system": "Bob NGN2 and Bob N2P iNs", "experiment": "RT-PCR of neuronal markers in iNeurons treated with or without cumate", "type": "cell-based, human", "settings": "RT-PCR relative to PBGD1", "protocol": "(§1) NGN2 and NGN2-Progerin iPSCs were dissociated into single cells with Accutase and plated onto PDL/Geltrex coated dishes at a density of 30K cells per cm^2. Forward programming was initiated 24 hours after the split. The induction was performed in DMEM/F-12 supplemented with Glutamax (100×), Non-Essential Amino Acids (100×), 50 μM 2-Mercaptoethanol (Gibco), 1% Penicillin/Streptomycin, 1 μg/mL Dox. After 2 days of induction, the medium was switched to Neurobasal-medium supplemented with Glutamax (100×), B27 (50×), 10 ng/mL BDNF (Peprotech), 10 ng/mL NT3 (R&D Systems), 1% Penicillin/Streptomycin, and 1 μg/mL Dox. In order to age NGN2-Progerin iNeurons (iNs), at D7 post induction, cumate was added to the medium for 7 days. Pre-aged iNs were induced as described above from 5 days aged NGN-Progerin iPSCs, no additional cumate was added during the induction process.\ncDNA synthesis was performed with the Maxima First Strand cDNA Synthesis Kit (Thermo Fisher Scientific). PowerUp SYBR Green Master Mix (Thermo Fisher Scientific) was used for RT-PCR. Samples were run on the QuantStudio 6 Flex Real-Timer PCR System machine (Applied Biosystems). All samples were analysed in technical duplicates and normalised to the house-keeping gene Porphobilinogen Deaminase 1 (PBGD1). Results were analysed with the ΔΔCt method. […]"}, "[2]": {"system": "GFP-Progerin expression under the cumate switch (CymR/CuO)", "experiment": "Cumate dose response assay (GFP-Progerin expression in iNeurons)", "type": "cell-based, human", "settings": "neurons induced with doxycycline and cumate", "protocol": "as §1\nIn order to allow for a separate control of NGN2 and progerin expression, the OPTi-OX technology was used and a dual system designed which is based on both the TetOn (Baron and Bujard (2000)) and the cumate switch (Mullick et al. (2006); Sato et al. (2020); and Seo and Schmidt-Dannert (2019)) inducible systems. This new system was referred to as (Opti-OX)^2. The cumate repressor (CymR) was first cloned into the original ROSA26 targeting vector, linked by a 2A sequence to rtTA (FIGS. 7A-F). […]"}}}
{"smiles": "CC(C)c1ccc(C(=O)O)cc1", "note": "[cumate]", "values": [{"measurement": "effect of cumate itself on gene expression (MAP2 and synapsin-1 downregulation)", "setting": "[1]", "result": "not responsible for the changes seen in gene expression"}, {"measurement": "GFP expression as a function of cumate dose", "setting": "[2]", "result": "titrated by adjusting the dose"}]}
